Key:
[1] = test system: ovalbumin specific TCR (OT-1) expressed in 58 αβ−/− cells; test: T cell stimulation assay (CD69) with peptide- or protein-pulsed BMDCs; format: cell-based, mouse; conditions: co-culture with loaded BMDCs
Method: T cell stimulation assays. T cell stimulation assays were performed as previously described. All the T cell peptide stimulation experiments were done in 96 well round bottom plates with a 200 μl total volume. T2, K562 cells or BMDCs were pulsed with 10-100 μg of the peptides for 45 minutes, washed once and plated (10,000 cells/well). Cell lines expressing TCRs (100,000 cells/well) were co-cultured with APCs for 18 hr. At the end of stimulation, cells were harvested, washed, and stained with TCRβ, human CD3, and CD69 and analyzed on LSR II (Becton Dickinson) for activation.

[2] = test system: experimental autoimmune encephalomyelitis (EAE); test: Induction and evaluation of EAE (clinical scores); format: in vivo, C57BL/6J mice
EAE6-CD8 TCR = format: binding, mouse; conditions: Jurkat αβ−/− cells, H2-Db tetramer
SP specific CD8+ T cells = test: Tetramer enrichment of SP-specific CD8+ T cells from spleen and LN after immunization; format: in vivo, C57BL/6J mice; conditions: 10D PI
6218 TCR = format: binding, mouse; conditions: Jurkat αβ−/− cells, H2-Db tetramer
[3] = test system: MOG35-55 specific CD4+ T cells; test: In vitro proliferation/suppression assay (CTV dilution); format: cell-based, mouse; conditions: CD4+ T cells from MOG immunized mice stimulated with MOG35-55
Method: In vitro proliferation/suppression assay. Spleen and LN cells were harvested from WT or immunized mice. Single cell suspensions were prepared, and RBCs were lysed using Ack lysis buffer (ThermoFisher scientific A1049201). […] Post CD4+ T cell enrichment, cells were counted and labelled with CellTrace™ Violet Dye (ThermoFisher scientific C34557) according to manufacturer instructions.
In vitro proliferation/suppression assays were set up according to previously published protocol. Briefly, labelled CD4+ T cells were co-cultured either with CD8+ T cells (1:1 ratio, 0.25×10^6 cells/well) or without CD8+ T cells in the presence of pan DC's (0.75×10^6 cells/well). In some of the suppression experiments cells were pre-included with 10 μg/ml of anti-Qa-1b neutralizing antibody (6A8.6F10.1A16, BD Biosciences). Cells were cultured in a total volume of 200 μl in a 96-well round bottom plate. The CD4+ T cells were stimulated with either MOG35-55 or not. On day 7, the cells were washed and stained with surface antibodies and analyzed on LSR II (Becton Dickinson).

[4] = test system: MOG35-55 specific CD4+ T cells; test: Tetramer enrichment of MOG35-55 I-Ab specific CD4+ T cells from spleen and LN after immunization; format: in vivo, C57BL/6J mice; conditions: D10 after immunization
EAE7-CD8 TCR = format: binding, mouse; conditions: Jurkat αβ−/− cells, H2-Db tetramer
[5] = molecular target: T1, surrogate peptide (SP) from the yeast H2-Db library; no match in the mouse genome peptide on H2-Db (mouse); test: multimer staining
T1 peptide: ASRSNRYFWL

[6] = molecular target: T2, surrogate peptide (SP) from the yeast H2-Db library; no match in the mouse genome peptide on H2-Db (mouse); test: multimer staining
T2 peptide: SMRPNHFFFL

[7] = molecular target: T3, yeast H2-Db library peptide enriched by the EAE6-CD8 TCR peptide on H2-Db (mouse); test: binding, other
T3 peptide: ASIANWPLAI

[8] = molecular target: T4, yeast H2-Db library peptide enriched by the EAE6-CD8 TCR peptide on H2-Db (mouse); test: binding, other
T4 peptide: GTEFNHWAAI

[9] = molecular target: T5, yeast H2-Db library peptide enriched by the EAE6-CD8 TCR peptide on H2-Db (mouse); test: binding, other
T5 peptide: NHRTNRYFFL

[10] = molecular target: T6, yeast H2-Db library peptide enriched by the EAE6-CD8 TCR peptide on H2-Db (mouse); test: binding, other
T6 peptide: NHRNNRYFFL

[11] = molecular target: T7, yeast H2-Db library peptide enriched by the EAE6-CD8 TCR peptide on H2-Db (mouse); test: binding, other
T7 peptide: FQRGNRLMWL

[12] = molecular target: T8, myelin oligodendrocyte glycoprotein (MOG); the tetramer is called MOG35-55 I-Ab in the results peptide on … (mouse); test: multimer staining
T8 peptide: GWYRSPFSRVV

[13] = molecular target: T9, surrogate peptide (SP) from the yeast H2-Db library; no match in the mouse genome peptide on H2-Db (mouse); test: multimer staining
T9 peptide: YQPGNWEYI

[14] = molecular target: T10, surrogate peptide (SP) from the yeast H2-Db library; no match in the mouse genome peptide on H2-Db (mouse); test: multimer staining
T10 peptide: HDRVNWEYI

[15] = molecular target: T11, yeast H2-Db library peptide enriched by the EAE7-CD8 TCR peptide on H2-Db (mouse); test: binding, other
T11 peptide: WSLRNLVML

[16] = molecular target: T12, yeast H2-Db library peptide enriched by the EAE7-CD8 TCR peptide on H2-Db (mouse); test: binding, other
T12 peptide: RDVHNPDVI

[17] = molecular target: T13, yeast H2-Db library peptide enriched by the EAE7-CD8 TCR peptide on H2-Db (mouse); test: binding, other
T13 peptide: TCAYNPRGM

[18] = molecular target: T14, yeast H2-Db library peptide enriched by the EAE7-CD8 TCR peptide on H2-Db (mouse); test: binding, other
T14 peptide: RRILNLGGM

[19] = molecular target: T15, yeast H2-Db library peptide enriched by the EAE7-CD8 TCR peptide on H2-Db (mouse); test: binding, other
T15 peptide: TRLVNDVDL

[20] = molecular target: T16, yeast H2-Db library peptide enriched by the EAE7-CD8 TCR peptide on H2-Db (mouse); test: binding, other
T16 peptide: QRHENLHRM

[21] = Table 7, MOG, SP challenge, MOG challenge (challenge seven days after first immunization), n=10
[22] = Table 7, challenge seven days after first immunization, affected if clinical scores ≥1 for ≥2 consecutive days
[23] = Table 7, challenge seven days after first immunization, mean ± SEM
[24] = MOG+SP immunization, spleen and LN
[25] = SP immunization in comparison to WT mice
[26] = Table 6, MOG35-55 with or without SP, mean ± SEM
[27] = Table 6, immunization with MOG35-55, CFA and PTX with or without SP, n=10

## SIINFEKL [ovalbumin derived peptide]
[1]
  activation (CD69) of OT-1 TCR cells: robust activation

## MOG challenge: mice immunized with SP, then challenged with MOG35-55 seven days after immunization (MEVGWYRSPFSRVVHLYRNGK; UniProt Q61885 63-83, looked up, fragment)
[2]; [21]
  Incidence (affected/total): 6/10
[2]; [22]
  Incidence, percentage affected: 60%
[2]; [23]
  CDS, cumulative disease score over 30 days of experiment: 43.3 ± 5.3
  DA, days affected: 8.2 ± 2.5
  DO, day of onset in affected animals: 10 ± 2.8
  PS, peak score: 1.5 ± 0.4
  SI, severity index (cumulative disease score/days affected): 1.29 ± 0.3

## ASRSNRYFWL [surrogate peptide for EAE6-CD8 TCR from H2-Db yeast library]
EAE6-CD8 TCR
  pMHC tetramer staining of EAE6-CD8 TCR cells: robust staining
SP specific CD8+ T cells; [24]
  frequency of CD8+ T cells specific for the peptide: increased
SP specific CD8+ T cells; [25]
  frequency of CD8+ T cells specific for the peptide: no change

## SSLENFRAYV [H2-Db-restricted acid polymerase peptide 224-233, ligand of 6218 TCR]
6218 TCR
  pMHC tetramer staining of 6218 TCR cells: robust staining

## MOG35-55: EAE-inducing myelin oligodendrocyte glycoprotein peptide 35-55 (MEVGWYRSPFSRVVHLYRNGK; UniProt Q61885 63-83, looked up, fragment)
[2]; MOG immunization with or without SP
  incidence of EAE disease (of the mice): 100%
[2]; [26]
  CDS, cumulative disease score: 46.3 ± 5.9
  DA, days affected: 16.3 ± 0.7
  DO, day of onset in affected animals: 13.8 ± 0.2
  PS, peak score: 3.2 ± 0.4
  SI, severity index (cumulative disease score/days affected): 3 ± 0.4
[2]; [27]
  Incidence (affected/total): 10/10
  Incidence, percentage affected: 100%
[2]; [21]
  Incidence (affected/total): 10/10
[2]; [22]
  Incidence, percentage affected: 100%
[2]; [23]
  CDS, cumulative disease score over 30 days of experiment: 55.8 ± 3.9
  DA, days affected: 17 ± 0.3
  DO, day of onset in affected animals: 13.3 ± 0.3
  PS, peak score: 4 ± 0.1
  SI, severity index (cumulative disease score/days affected): 3.14 ± 0.2
[3]
  CD4+ T cell proliferation in the absence of CD8+ T cells: proliferated robustly
[4]
  frequency/number of MOG35-55 I-Ab tetramer+ CD4+ T cells: elicited
[4]; listed as MOG
  frequency/number of MOG35-55 I-Ab tetramer+ CD4+ T cells: increase
SP specific CD8+ T cells; MOG35-55 immunized mice
  SP specific CD8+ T cells detected: very few

## SMRPNHFFFL [surrogate peptide for EAE6-CD8 TCR from H2-Db yeast library]
EAE6-CD8 TCR
  pMHC tetramer staining of EAE6-CD8 TCR cells: robust staining
SP specific CD8+ T cells; [24]
  frequency of CD8+ T cells specific for the peptide: increased
SP specific CD8+ T cells; [25]
  frequency of CD8+ T cells specific for the peptide: higher frequency

## YQPGNWEYI [top enriched surrogate peptide for EAE7-CD8 TCR]
EAE7-CD8 TCR
  pMHC tetramer staining of EAE7-CD8 TCR cells: robust staining
SP specific CD8+ T cells; [25]
  frequency of CD8+ T cells specific for the peptide: no change

## HDRVNWEYI [36th enriched peptide for EAE7-CD8 TCR]
EAE7-CD8 TCR
  pMHC tetramer staining of EAE7-CD8 TCR cells: robust tetramer staining
SP specific CD8+ T cells; [24]
  frequency of CD8+ T cells specific for the peptide: increased
SP specific CD8+ T cells; [25]
  frequency of CD8+ T cells specific for the peptide: higher frequency

B1: EAE6-CD8 (TCR)
alpha mTRAV12-1 mTRAJ31 CDR3: CALSDYNRIFF
beta mTRBV19 mTRBJ2-3 CDR3: CASSITPLGGLETLYF
[5]
  binding result: recognises
[6]
  binding result: recognises
[7]
  binding result: recognises
[8]
  binding result: recognises
[9]
  binding result: recognises
[10]
  binding result: recognises
[11]
  binding result: recognises

B2: ovalbumin protein: whole OVA protein (protein, UniProt P01012 2-386, looked up)
Ovalbumin: GSIGAASMEFCFDVFKELKVHHANENIFYCPIAIMSALAMVYLGAKDSTRTQINKVVRFDKLPGFGDSIEAQCGTSVNVHSSLRDILNQITKPNDVYSFSLASRLYAEERYPILPEYLQCVKELYRGGLEPINFQTAADQARELINSWVESQTNGIIRNVLQPSSVDSQTAMVLVNAIVFKGLWEKAFKDEDTQAMPFRVTEQESKPVQMMYQIGLFRVASMASEKMKILELPFASGTMSMLVLLPDEVSGLEQLESIINFEKLTEWTSSNVMEERKIKVYLPRMKMEEKYNLTSVLMAMGITDVFSSSANLSGISSAESLKISQAVHAAHAEINEAGREVVGSAEAGVDAASVSEEFRADHPFLFCIKHIATNAVLFFGRCVSP
[1]
  activation (CD69) of OT-1 TCR cells: robustly stimulated

B3: EAE3-CD4 (TCR)
alpha mTRAV14D-1 mTRAJ43 CDR3: CAASGANNNNAPRF
beta mTRBV3 mTRBJ2-5 CDR3: CASSLEGHQDTQYF
[12]
  binding result: recognises

B4: EAE2-CD4 (TCR)
alpha mTRAV12-1 mTRAJ23 CDR3: CALRNYNQGKLIF
beta mTRBV16 mTRBJ1-4 CDR3: CASSLDQGWDERLFF
[12]
  binding result: recognises

B5: EAE7-CD8 (TCR)
alpha mTRAV5D-4 mTRAJ45 CDR3: CAASVNTEGADRLTF
beta mTRBV15 mTRBJ1-1 CDR3: CASTNRGEVFF
[13]
  binding result: recognises
[14]
  binding result: recognises
[15]
  binding result: recognises
[16]
  binding result: recognises
[17]
  binding result: recognises
[18]
  binding result: recognises
[19]
  binding result: recognises
[20]
  binding result: recognises

— patent US12636317B2, “Manipulation and use of antigen-specific regulatory T cells” (The Board of Trustees of the Leland Stanford Junior …, priority 2019, dated 2026)
